From ChEMBL document CHEMBL1139328, “4-Fluoro-N-butylphenylacetamide (H6) inhibits cell growth via cell-cycle arrest and apoptosis in human cervical cancer cells” (2009)
Calls of active or inactive are those of the source. The calls are words filed in the database; no cut-off is given here.

Legend:
HeLa [1] = assay: Induction of apoptosis in human HeLa cells at 1 mM after 8 hrs by TUNEL/DAPI double staining; format: functional
HeLa [2] = assay: Cell cycle arrest in human HeLa cells assessed as accumulation at S phase after 48 hrs by flow cytometry; format: functional
Ca-Ski [3] = assay: Decrease in CDK1 protein expression in human CaSki cells at 1 mM by Western blot; format: functional, cell-based
Ca-Ski [4] = assay: Induction of apoptosis in human CaSki cells assessed as proteolytic activation of caspase 3 at 1 mM by SDS-PAGE; format: functional, cell-based
Ca-Ski [5] = assay: Increase in p53 protein level in human CaSki cells at 1 mM after 24 hrs by Western blot; format: functional, cell-based
HeLa [6] = assay: Cell cycle arrest in human HeLa cells assessed as accumulation at G2/M phase after 48 hrs by flow cytometry; format: functional
HeLa [7] = assay: Induction of apoptosis in human HeLa cells assessed as proteolytic activation of caspase 9 at 1 mM by SDS-PAGE; format: functional, cell-based
Ca-Ski [8] = assay: Increase in Bax protein expression in human CaSki cells at 1 mM by Western blot; format: functional, cell-based
Ca-Ski [9] = assay: Effect on Bcl-Xl protein expression in human CaSki cells at 1 mM by Western blot; format: functional, cell-based
HeLa [10] = assay: Induction of cytosolic cytochrome c accumulation in human HeLa cells at 1 mM by SDS-PAGE; format: functional, cell-based; conditions: TDE = time-dependent effect
Ca-Ski [11] = assay: Cell cycle arrest in human CaSki cells assessed as accumulation at G2/M phase after 8 hrs by flow cytometry; format: functional
Ca-Ski [12] = assay: Induction of apoptosis in human CaSki cells assessed as proteolytic activation of caspase 9 at 1 mM by SDS-PAGE; format: functional, cell-based
HeLa [13] = assay: Cell cycle arrest in human HeLa cells assessed as accumulation at G0/G1 phase after 24 hrs by flow cytometry; format: functional
HeLa [14] = assay: Cell cycle arrest in human HeLa cells assessed as accumulation at G0/G1 phase after 8 hrs by flow cytometry; format: functional
HeLa [15] = assay: Cell cycle arrest in human HeLa cells assessed as accumulation at G2/M phase after 24 hrs by flow cytometry; format: functional
HeLa [16] = assay: Induction of apoptosis in human HeLa cells at 1 mM after 24 hrs by TUNEL/DAPI double staining; format: functional
HeLa [17] = assay: Decrease in CDK1 protein expression in human HeLa cells at 1 mM by Western blot; format: functional, cell-based
HeLa [18] = assay: Cytotoxicity against human HeLa cells by trypan blue exclusion method; format: functional, cell-based
Ca-Ski [19] = assay: Cytotoxicity against human CaSki cells by trypan blue exclusion method; format: functional, cell-based; conditions: TDE = time-dependent effect
Ca-Ski [20] = assay: Induction of apoptosis in human CaSki cells assessed as caspase 3 activation by fluorogenic substrate based assay after 24 hrs; format: functional, cell-based
HeLa [21] = assay: Decrease in CDK2 protein expression in human HeLa cells at 1 mM by Western blot; format: functional, cell-based
Ca-Ski [22] = assay: Cell cycle arrest in human CaSki cells assessed as accumulation at G2/M phase after 24 hrs by flow cytometry; format: functional
HeLa [23] = assay: Induction of apoptosis in human HeLa cells at 1 mM after 48 hrs by TUNEL/DAPI double staining; format: functional
Ca-Ski [24] = assay: Cell cycle arrest in human CaSki cells assessed as accumulation at G0/G1 phase after 48 hrs by flow cytometry; format: functional
HeLa [25] = assay: Induction of apoptosis in human HeLa cells assessed as caspase 3 activation by fluorogenic substrate based assay after 24 hrs; format: functional, cell-based
Ca-Ski [26] = assay: Cell cycle arrest in human CaSki cells assessed as accumulation at G0/G1 phase after 24 hrs by flow cytometry; format: functional
HeLa [27] = assay: Induction of apoptosis in human HeLa cells assessed as caspase 9 activation by fluorogenic substrate based assay after 48 hrs; format: functional, cell-based
Ca-Ski [28] = assay: Cell cycle arrest in human CaSki cells assessed as accumulation at G2/M phase after 48 hrs by flow cytometry; format: functional
HeLa [29] = assay: Decrease in Bcl2 protein expression in human HeLa cells at 1 mM by Western blot; format: functional, cell-based
HeLa [30] = assay: Cell cycle arrest in human HeLa cells assessed as accumulation at G0/G1 phase after 48 hrs by flow cytometry; format: functional
Ca-Ski [31] = assay: Decrease in cyclin B protein expression in human CaSki cells at 1 mM by Western blot; format: functional, cell-based
Ca-Ski [32] = assay: Decrease in cyclin A protein expression in human CaSki cells at 1 mM by Western blot; format: functional, cell-based
Ca-Ski [33] = assay: Induction of apoptosis in human CaSki cells assessed as nuclear DNA fragmentation at 1 mM after 48 hrs by TUNEL/DAPI double staining; format: functional, cell-based
HeLa [34] = assay: Effect on Bcl-Xl protein expression in human HeLa cells at 1 mM by Western blot; format: functional, cell-based
HeLa [35] = assay: Decrease in cyclin A protein expression in human HeLa cells at 1 mM by Western blot; format: functional, cell-based
HeLa [36] = assay: Cell cycle arrest in human HeLa cells assessed as accumulation at S phase after 8 hrs by flow cytometry; format: functional
HeLa [37] = assay: Cell cycle arrest in human HeLa cells assessed as accumulation at G2/M phase after 8 hrs by flow cytometry; format: functional
HeLa [38] = assay: Induction of apoptosis in human HeLa cells assessed as chromatin condensation at 1 mM after 48 hrs by TUNEL/DAPI double staining; format: functional, cell-based
Ca-Ski [39] = assay: Decrease in CDK2 protein expression in human CaSki cells at 1 mM by Western blot; format: functional, cell-based
Ca-Ski [40] = assay: Cell cycle arrest in human CaSki cells assessed as accumulation at G0/G1 phase after 8 hrs by flow cytometry; format: functional
Ca-Ski [41] = assay: Decrease in Bcl2 protein expression in human CaSki cells at 1 mM by Western blot; format: functional, cell-based
HeLa [42] = assay: Cell cycle arrest in human HeLa cells assessed as accumulation at S phase after 24 hrs by flow cytometry; format: functional
Ca-Ski [43] = assay: Cell cycle arrest in human CaSki cells assessed as accumulation at S phase after 8 hrs by flow cytometry; format: functional
HeLa [44] = assay: Increase in Bax protein expression in human HeLa cells at 1 mM by Western blot; format: functional, cell-based
Ca-Ski [45] = assay: Induction of apoptosis in human CaSki cells at 1 mM after 24 hrs by TUNEL/DAPI double staining; format: functional
Ca-Ski [46] = assay: Induction of apoptosis in human CaSki cells at 1 mM after 48 hrs by TUNEL/DAPI double staining; format: functional
Ca-Ski [47] = assay: Cell cycle arrest in human CaSki cells assessed as accumulation at S phase after 48 hrs by flow cytometry; format: functional
Ca-Ski [48] = assay: Increase in p53 protein level in human CaSki cells at 1 mM up to 48 hrs by Western blot; format: functional, cell-based
HeLa [49] = assay: Induction of apoptosis in human HeLa cells assessed as proteolytic activation of caspase 3 at 1 mM by SDS-PAGE; format: functional, cell-based
Ca-Ski [50] = assay: Cell cycle arrest in human CaSki cells assessed as accumulation at S phase after 24 hrs by flow cytometry; format: functional
HeLa [51] = assay: Decrease in cyclin B protein expression in human HeLa cells at 1 mM by Western blot; format: functional, cell-based
Ca-Ski [52] = assay: Induction of cytosolic cytochrome c accumulation in human CaSki cells at 1 mM by SDS-PAGE; format: functional, cell-based; conditions: TDE = time-dependent effect
HeLa [53] = assay: Increase in p53 protein level in human HeLa cells at 1 mM after 24 hrs by Western blot; format: functional, cell-based
Ca-Ski [54] = assay: Induction of apoptosis in human CaSki cells at 1 mM after 8 hrs by TUNEL/DAPI double staining; format: functional
Ca-Ski [55] = assay: Induction of apoptosis in human CaSki cells assessed as caspase 9 activation by fluorogenic substrate based assay after 48 hrs; format: functional, cell-based
Ca-Ski [56] = assay: Induction of apoptosis in human CaSki cells assessed as chromatin condensation at 1 mM after 48 hrs by TUNEL/DAPI double staining; format: functional, cell-based
HeLa [57] = assay: Induction of apoptosis in human HeLa cells assessed as nuclear DNA fragmentation at 1 mM after 48 hrs by TUNEL/DAPI double staining; format: functional, cell-based

CCCCNC(=O)Cc1ccc(F)cc1
Activity (HeLa [1]): 1.9%
Activity (HeLa [2]): 22.7%
Activity (Ca-Ski [3]): Active
Activity (Ca-Ski [4]): Active
Activity (Ca-Ski [5]): Active
Activity (HeLa [6]): 46.7%
Activity (HeLa [7]): Active
Activity (Ca-Ski [8]): Active
Activity (Ca-Ski [9]): inactive
Activity (HeLa [10]): tde
Activity (Ca-Ski [11]): 18.6%
Activity (Ca-Ski [12]): Active
Activity (HeLa [13]): 42.6%
Activity (HeLa [14]): 31.2%
Activity (HeLa [15]): 28.5%
Activity (HeLa [16]): 23.6%
Activity (HeLa [17]): Active
Activity (HeLa [18]): Dose-dependent effect
Activity (Ca-Ski [19]): tde
Activity (Ca-Ski [20]): Active
Activity (HeLa [21]): Active
Activity (Ca-Ski [22]): 26.5%
Activity (HeLa [23]): 28.2%
Activity (Ca-Ski [24]): 51.5%
Activity (HeLa [25]): Active
Activity (Ca-Ski [26]): 52.7%
Activity (HeLa [27]): Active
Activity (Ca-Ski [28]): 28.6%
Activity (HeLa [29]): Active
Activity (HeLa [30]): 30.6%
Activity (Ca-Ski [31]): Active
Activity (Ca-Ski [32]): Active
Activity (Ca-Ski [33]): Active
Activity (HeLa [34]): inactive
Activity (HeLa [35]): Active
Activity (HeLa [36]): 46.9%
Activity (HeLa [37]): 22.1%
Activity (HeLa [38]): Active
Activity (Ca-Ski [39]): Active
Activity (Ca-Ski [40]): 53.6%
Activity (Ca-Ski [41]): Active
Activity (HeLa [42]): 28.9%
Activity (Ca-Ski [43]): 27.7%
Activity (HeLa [44]): Active
Activity (Ca-Ski [45]): 6%
Activity (Ca-Ski [46]): 13.2%
Activity (Ca-Ski [47]): 19.9%
Activity (Ca-Ski [48]): Active
Activity (HeLa [49]): Active
Activity (Ca-Ski [50]): 21%
Activity (HeLa [51]): Active
Activity (Ca-Ski [52]): tde
Activity (HeLa [53]): Active
Activity (Ca-Ski [54]): 5.6%
Activity (Ca-Ski [55]): Active
Activity (Ca-Ski [56]): Active
Activity (HeLa [57]): Active
